Data on eight compounds can be found in PubChem BioAssay (NCI).

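96-well plates; 48 h exposure; 5 concentrations. Endpoints by linear interpolation between flanking doses. Not reached: highest tested concentration assigned. Abbreviation: GI50, concentration required for 50% inhibition of growth. Definition used: TGI = concentration required for complete inhibition of growth.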 Some results are limits rather than exact numbers.

Among the test systems are COLO 205 colon; HCT-116 colon; HL-60(TB) leukemia; HS 578T breast; KM12 colon; MCF7 breast; NCI-H226 lung; NCI-H460 lung; OVCAR-3 ovarian; OVCAR-5 ovarian.
Common to all, as to assay: NCI anticancer screen, dose series, 48 h

Consider `CCOC(=O)c1cc2c(n1Cc1cc(OC)cc(OC)c1)-c1oncc1CC2`, for which the GI50 in the experiment on COLO 205 colon was 0.182 µM; in the experiment with HCT-116 colon, 0.157 µM; in the experiment with HL-60(TB) leukemia, 0.0634 µM; in the experiment on HS 578T breast, 0.156 µM; in the experiment on KM12 colon, 0.0816 µM; in the experiment with MCF7 breast, 0.0492 µM. Moreover, the GI50 is 2.75 µM in the experiment on NCI-H226 lung, 0.139 µM in the experiment with NCI-H460 lung, 0.0389 µM in the experiment on OVCAR-3 ovarian and 0.474 µM in the experiment with OVCAR-5 ovarian. For the same compound, the TGI with COLO 205 colon was 0.616 µM; in the experiment with HCT-116 colon, over 100 µM; with HL-60(TB) leukemia, 1.15 µM; in the experiment on HS 578T breast it was over 96.2 µM; in the experiment with KM12 colon it was over 59.5 µM; with MCF7 breast, over 100 µM. Further, the TGI in the experiment on NCI-H226 lung was over 100 µM; in the experiment with NCI-H460 lung, over 37.8 µM; in the experiment with OVCAR-3 ovarian, 0.197 µM; in the experiment with OVCAR-5 ovarian, over 100 µM.

As for `c1ccc2c(c1)[nH]c1c3ccccc3sc21`, the TGI in the experiment with COLO 205 colon, in the experiment with HCT-116 colon, in the experiment on HL-60(TB) leukemia, in the experiment with HS 578T breast, with KM12 colon and in the experiment with MCF7 breast was over 100 µM throughout. Further, the TGI with NCI-H226 lung, in the experiment with NCI-H460 lung, with OVCAR-3 ovarian and with OVCAR-5 ovarian was over 100 µM each time.

In the case of `CCC(C(=O)[C@@H](C)[C@@H](O)[C@H](C)[C@@H]1O[C@@H]([C@@H](CC)C(=O)ONC(=O)c2ccccc2)CC[C@@H]1C)[C@H]1O[C@]2(C=CC(=O)[C@]3(CC[C@@](C)([C@H]4CC[C@](O)(CC)[C@H](C)O4)O3)O2)[C@H](C)C[C@@H]1C` (stereo not given in full), the GI50 in the experiment on COLO 205 colon was 0.122 µM; in the experiment on HCT-116 colon, 0.36 µM; in the experiment on HL-60(TB) leukemia, 0.0875 µM; with HS 578T breast, 0.0991 µM; in the experiment on KM12 colon it was 0.592 µM; in the experiment on MCF7 breast it was 0.0869 µM. The GI50 with NCI-H226 lung was 0.749 µM; with NCI-H460 lung, 0.331 µM; in the experiment on OVCAR-3 ovarian, 0.0849 µM; with OVCAR-5 ovarian, 0.498 µM. In addition, the TGI was 1.78 µM in the experiment with COLO 205 colon; 1.91 µM in the experiment with HCT-116 colon; 0.442 µM in the experiment with HL-60(TB) leukemia; 2.58 µM in the experiment on HS 578T breast; 2.94 µM with KM12 colon; 1.62 µM in the experiment with MCF7 breast. In addition, the TGI with NCI-H226 lung is 3.56 µM; with NCI-H460 lung, 2.09 µM; in the experiment on OVCAR-3 ovarian it was 1.29 µM; with OVCAR-5 ovarian, 2.18 µM.

Regarding `Nc1nc(N)c(-c2ccc(Cl)c(Cl)c2)c(CP(Cl)(Cl)(Cl)Br)n1`, the GI50 with COLO 205 colon is 10.4 µM; in the experiment with HCT-116 colon, 3.52 µM; in the experiment on HL-60(TB) leukemia it was 4.07 µM; with HS 578T breast, 24.4 µM; with KM12 colon, 14.3 µM; in the experiment with MCF7 breast, 16.1 µM. For the same compound, the GI50 with NCI-H226 lung is 99.7 µM; in the experiment with NCI-H460 lung it was 1.58 µM; with OVCAR-3 ovarian, 21.1 µM; with OVCAR-5 ovarian it was 6.96 µM. For the same compound, the TGI was over 100 µM in the experiment on COLO 205 colon; over 100 µM with HCT-116 colon; 31.6 µM in the experiment on HL-60(TB) leukemia; over 100 µM with HS 578T breast; over 100 µM in the experiment on KM12 colon; over 100 µM with MCF7 breast. Besides, the TGI in the experiment with NCI-H226 lung, in the experiment with NCI-H460 lung, with OVCAR-3 ovarian and in the experiment on OVCAR-5 ovarian was over 100 µM each time.

Take `C=CCN1C(=O)[C@]2(SC1=S)[C@H](c1cccc(Cl)c1)CN(C)[C@]21C(=O)NC2C=CC(Cl)=C[C@H]21` (stereo not given in full): the GI50 in the experiment on COLO 205 colon is 1.78 µM; in the experiment on HCT-116 colon, 2.88 µM; in the experiment with HL-60(TB) leukemia it was 1.33 µM; in the experiment with HS 578T breast it was 3.6 µM; with KM12 colon it was 1.99 µM; in the experiment on MCF7 breast, 2.68 µM. The GI50 in the experiment on NCI-H226 lung is 1.59 µM; with NCI-H460 lung it was 3.62 µM; with OVCAR-3 ovarian, 3.43 µM; with OVCAR-5 ovarian it was 4.35 µM. In addition, the TGI came out at 4.35 µM in the experiment on COLO 205 colon; 13.9 µM with HCT-116 colon; 3.58 µM in the experiment on HL-60(TB) leukemia; 21.2 µM with HS 578T breast; 6.35 µM in the experiment on KM12 colon; 11.7 µM with MCF7 breast. Besides, the TGI turned out to be 3.98 µM in the experiment on NCI-H226 lung, 13.6 µM with NCI-H460 lung, 14.2 µM in the experiment on OVCAR-3 ovarian and 18.1 µM with OVCAR-5 ovarian.

As to `Cc1nn(-c2ccccc2)c2nc(C)n(-c3ccc(Br)cc3)c(=O)c12`, the GI50 was 0.549 µM in the experiment with COLO 205 colon; 0.425 µM in the experiment with HCT-116 colon; 0.286 µM with HL-60(TB) leukemia; 0.371 µM in the experiment with HS 578T breast; 0.521 µM in the experiment with KM12 colon; 0.356 µM in the experiment with MCF7 breast. Besides, the GI50 with NCI-H226 lung is 1.01 µM; with NCI-H460 lung, 0.451 µM; in the experiment with OVCAR-3 ovarian, 0.405 µM; in the experiment on OVCAR-5 ovarian it was 1.99 µM. For the same compound, the TGI is 18.4 µM in the experiment with COLO 205 colon; over 65.4 µM with HCT-116 colon; 3.07 µM with HL-60(TB) leukemia; over 100 µM in the experiment with HS 578T breast; over 100 µM in the experiment with KM12 colon; over 100 µM in the experiment on MCF7 breast. The TGI in the experiment with NCI-H226 lung was over 100 µM; in the experiment on NCI-H460 lung, over 39.1 µM; in the experiment with OVCAR-3 ovarian, over 36.7 µM; in the experiment on OVCAR-5 ovarian it was over 100 µM.

Consider `C/C(=N\NC(=S)N1CCN(c2ccccn2)CC1)c1cccc2cccnc12`, for which the TGI in the experiment on COLO 205 colon is over 46.1 µM; with HCT-116 colon, 6.71 µM; with HL-60(TB) leukemia it was 12.3 µM; with HS 578T breast, over 100 µM; with KM12 colon, over 100 µM; with MCF7 breast, over 100 µM. Also, the TGI in the experiment with NCI-H226 lung is 38.4 µM; with NCI-H460 lung it was over 100 µM; with OVCAR-3 ovarian, over 29 µM; with OVCAR-5 ovarian it was over 60.1 µM.

As to `Cc1cn2c(/C=C3\C(=O)N(C)c4ccc(Cl)cc43)c(C)nc2s1`, the GI50 in the experiment with COLO 205 colon was 3.47 µM; with HCT-116 colon, 2.55 µM; in the experiment on HL-60(TB) leukemia, 3.36 µM; with HS 578T breast, 8.28 µM; in the experiment with KM12 colon, 1.29 µM; in the experiment on MCF7 breast it was 7.01 µM. The GI50 in the experiment with NCI-H226 lung is 18.5 µM; in the experiment with NCI-H460 lung, 2.86 µM; in the experiment on OVCAR-3 ovarian, 2.55 µM; in the experiment on OVCAR-5 ovarian, 3.16 µM. The TGI in the experiment on COLO 205 colon was over 100 µM; with HCT-116 colon, 14.6 µM; in the experiment on HL-60(TB) leukemia, over 100 µM; with HS 578T breast, over 100 µM; in the experiment with KM12 colon it was over 100 µM; in the experiment on MCF7 breast, 55.5 µM. Moreover, the TGI in the experiment with NCI-H226 lung was over 100 µM; in the experiment with NCI-H460 lung, 15.3 µM; in the experiment on OVCAR-3 ovarian, 6.93 µM; in the experiment on OVCAR-5 ovarian, 12.2 µM.
